{"source": "PubChem BioAssay (NCI)", "test_in_all_cases": "inhibition of tumour cell growth, NCI panel, 48 h", "key": {"T-47D breast": {"tested_on": "T-47D breast"}, "SN12C renal": {"tested_on": "SN12C renal"}, "HT29 colon": {"tested_on": "HT29 colon"}, "OVCAR-4 ovarian": {"tested_on": "OVCAR-4 ovarian"}, "SF-295 CNS": {"tested_on": "SF-295 CNS"}, "HCT-116 colon": {"tested_on": "HCT-116 colon"}, "DU-145 prostate": {"tested_on": "DU-145 prostate"}, "PC-3 prostate": {"tested_on": "PC-3 prostate"}, "RPMI-8226 leukemia": {"tested_on": "RPMI-8226 leukemia"}, "HS 578T breast": {"tested_on": "HS 578T breast"}, "HCC-2998 colon": {"tested_on": "HCC-2998 colon"}, "KM12 colon": {"tested_on": "KM12 colon"}, "A498 renal": {"tested_on": "A498 renal"}, "CAKI-1 renal": {"tested_on": "CAKI-1 renal"}, "UO-31 renal": {"tested_on": "UO-31 renal"}, "UACC-257 melanoma": {"tested_on": "UACC-257 melanoma"}, "SF-539 CNS": {"tested_on": "SF-539 CNS"}, "M14 melanoma": {"tested_on": "M14 melanoma"}, "OVCAR-8 ovarian": {"tested_on": "OVCAR-8 ovarian"}, "SK-MEL-2 melanoma": {"tested_on": "SK-MEL-2 melanoma"}, "HCT-15 colon": {"tested_on": "HCT-15 colon"}, "MDA-MB-468 breast": {"tested_on": "MDA-MB-468 breast"}, "HOP-62 NSCLC": {"tested_on": "HOP-62 NSCLC"}, "OVCAR-5 ovarian": {"tested_on": "OVCAR-5 ovarian"}, "SNB-75 CNS": {"tested_on": "SNB-75 CNS"}, "MCF7 breast": {"tested_on": "MCF7 breast"}, "EKVX NSCLC": {"tested_on": "EKVX NSCLC"}, "U251 CNS": {"tested_on": "U251 CNS"}, "COLO 205 colon": {"tested_on": "COLO 205 colon"}}, "note": "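Five concentrations, 48 hours, 96-well plates. At the GI50, growth is halved. TGI is the concentration that stops growth completely.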"}
{"smiles": "Cn1cc(-c2cc3nc(-c4c[nH]c5ccccc45)cc(N)n3n2)c2cc(Cl)ccc21", "values": [{"measurement": "TGI", "setting": "T-47D breast", "result": 3.82, "unit": "µM"}, {"measurement": "GI50", "setting": "SN12C renal", "result": 1.9, "unit": "µM"}, {"measurement": "TGI", "setting": "SN12C renal", "result": 4.15, "unit": "µM"}, {"measurement": "GI50", "setting": "HT29 colon", "result": 1.93, "unit": "µM"}, {"measurement": "TGI", "setting": "HT29 colon", "result": 3.99, "unit": "µM"}, {"measurement": "GI50", "setting": "OVCAR-4 ovarian", "result": 1.82, "unit": "µM"}, {"measurement": "TGI", "setting": "OVCAR-4 ovarian", "result": 3.49, "unit": "µM"}, {"measurement": "GI50", "setting": "SF-295 CNS", "result": 1.78, "unit": "µM"}, {"measurement": "TGI", "setting": "SF-295 CNS", "result": 3.53, "unit": "µM"}, {"measurement": "GI50", "setting": "HCT-116 colon", "result": 1.75, "unit": "µM"}, {"measurement": "TGI", "setting": "HCT-116 colon", "result": 3.24, "unit": "µM"}, {"measurement": "GI50", "setting": "DU-145 prostate", "result": 3.62, "unit": "µM"}, {"measurement": "TGI", "setting": "DU-145 prostate", "result": 13.4, "unit": "µM"}, {"measurement": "GI50", "setting": "PC-3 prostate", "result": 2.97, "unit": "µM"}, {"measurement": "TGI", "setting": "PC-3 prostate", "result": 9.37, "unit": "µM"}, {"measurement": "GI50", "setting": "RPMI-8226 leukemia", "result": 2.94, "unit": "µM"}, {"measurement": "TGI", "setting": "RPMI-8226 leukemia", "result": 9.18, "unit": "µM"}, {"measurement": "GI50", "setting": "HS 578T breast", "result": 2.38, "unit": "µM"}, {"measurement": "TGI", "setting": "HS 578T breast", "result": 6.49, "unit": "µM"}, {"measurement": "GI50", "setting": "HCC-2998 colon", "result": 1.87, "unit": "µM"}, {"measurement": "TGI", "setting": "HCC-2998 colon", "result": 3.5, "unit": "µM"}, {"measurement": "GI50", "setting": "KM12 colon", "result": 1.99, "unit": "µM"}, {"measurement": "TGI", "setting": "KM12 colon", "result": 4.24, "unit": "µM"}, {"measurement": "GI50", "setting": "A498 renal", "result": 3.16, "unit": "µM"}, {"measurement": "TGI", "setting": "A498 renal", "result": 11.1, "unit": "µM"}, {"measurement": "GI50", "setting": "CAKI-1 renal", "result": 1.66, "unit": "µM"}, {"measurement": "TGI", "setting": "CAKI-1 renal", "result": 3.2, "unit": "µM"}, {"measurement": "GI50", "setting": "UO-31 renal", "result": 1.72, "unit": "µM"}, {"measurement": "TGI", "setting": "UO-31 renal", "result": 3.25, "unit": "µM"}, {"measurement": "GI50", "setting": "UACC-257 melanoma", "result": 1.68, "unit": "µM"}, {"measurement": "TGI", "setting": "UACC-257 melanoma", "result": 3.25, "unit": "µM"}, {"measurement": "GI50", "setting": "SF-539 CNS", "result": 1.73, "unit": "µM"}, {"measurement": "TGI", "setting": "SF-539 CNS", "result": 3.19, "unit": "µM"}, {"measurement": "GI50", "setting": "M14 melanoma", "result": 1.77, "unit": "µM"}, {"measurement": "TGI", "setting": "M14 melanoma", "result": 3.36, "unit": "µM"}, {"measurement": "GI50", "setting": "OVCAR-8 ovarian", "result": 2.23, "unit": "µM"}, {"measurement": "TGI", "setting": "OVCAR-8 ovarian", "result": 5.07, "unit": "µM"}, {"measurement": "GI50", "setting": "SK-MEL-2 melanoma", "result": 2.11, "unit": "µM"}, {"measurement": "TGI", "setting": "SK-MEL-2 melanoma", "result": 4.63, "unit": "µM"}, {"measurement": "GI50", "setting": "HCT-15 colon", "result": 1.62, "unit": "µM"}, {"measurement": "TGI", "setting": "HCT-15 colon", "result": 3.35, "unit": "µM"}, {"measurement": "GI50", "setting": "MDA-MB-468 breast", "result": 1.62, "unit": "µM"}, {"measurement": "TGI", "setting": "MDA-MB-468 breast", "result": 3.37, "unit": "µM"}, {"measurement": "GI50", "setting": "HOP-62 NSCLC", "result": 2.12, "unit": "µM"}, {"measurement": "TGI", "setting": "HOP-62 NSCLC", "result": 5.31, "unit": "µM"}, {"measurement": "GI50", "setting": "OVCAR-5 ovarian", "result": 1.81, "unit": "µM"}, {"measurement": "TGI", "setting": "OVCAR-5 ovarian", "result": 4.22, "unit": "µM"}, {"measurement": "GI50", "setting": "SNB-75 CNS", "result": 1.52, "unit": "µM"}, {"measurement": "TGI", "setting": "SNB-75 CNS", "result": 3.06, "unit": "µM"}, {"measurement": "GI50", "setting": "MCF7 breast", "result": 1.66, "unit": "µM"}, {"measurement": "TGI", "setting": "MCF7 breast", "result": 3.31, "unit": "µM"}, {"measurement": "GI50", "setting": "EKVX NSCLC", "result": 2.12, "unit": "µM"}, {"measurement": "TGI", "setting": "EKVX NSCLC", "result": 6.03, "unit": "µM"}, {"measurement": "GI50", "setting": "U251 CNS", "result": 1.8, "unit": "µM"}, {"measurement": "TGI", "setting": "U251 CNS", "result": 3.61, "unit": "µM"}, {"measurement": "GI50", "setting": "COLO 205 colon", "result": 1.89, "unit": "µM"}, {"measurement": "TGI", "setting": "COLO 205 colon", "result": 3.59, "unit": "µM"}]}
